Data as given in patent US10322136B2, “Composition for inhibiting growth or proliferation of chronic myelogenous leukemia cancer stem cells, and screening method therefor” (HIROSHIMA UNIVERSITY, priority 2015, dated 2019).
Where a name gives a salt, the structure may show the parent alone. Where a SMILES comes first, the peptide text is derived from it. [ ]: non-standard residue; d: D form. Sar = CNCC(=O)O

Tests used:
[1] = system: AMPK; experiment: Duolink in situ PLA, AMPK phosphorylation in LT-CML cancer stem cells; format: cell-based, mouse; conditions: LT-CML cancer stem cells in vitro
Procedure: (§1) To examine phosphorylation of Smad2, Smad3, p38MAPK, AMPK, and S6 ribosomal protein, and Foxo3a-Smad2 and Foxo3a-Smad3 interactions, Duolink® in situ PLA assay (Olink Bioscience) was used. LT-CML stem cells, ST-CML stem cells, CD48^+, MPP, and KLS^− CML cells that were freshly isolated from CML-affected mice, and LT-normal HSCs that were freshly isolated from healthy control littermates, were immediately fixed with 4% paraformaldehyde for 30 min.
(§2) For in vitro inhibitor experiments, LT-CML stem cells were incubated in 3% O2 at 37° C. for 30 min with vehicle (control; artificial gastric fluid solution (900 ml ddH2O containing 2.0 g of NaCl, 7 ml of conc. HCl and 3.2 g of pepsin)), 5 μM Ly364947 (TGF-β type I receptor kinase Alk5 inhibitor; Merck), 5 μM SB203580 (p38MAPK inhibitor; LC Laboratories), 5 μM GlySar (dipeptide transporter inhibitor; Sigma-Aldrich), 5 μM cefadroxil (dipeptide transporter inhibitor; Sigma-Aldrich), or 100 nM rapamycin (mTORC1 inhibitor; Cell Signaling Technologies). Treated cells were fixed with 4% paraformaldehyde for 30 min, and treated with 0.25% Triton X-100 for 15 min, washed and blocked by incubation in 5% FBS in TBS for 1 hr.
(§3) The proximate binding of these antibodies was then detected using Duolink® in situ PLA system which employs a set of two secondary antibodies in which one is conjugated to a minus strand PLA probe and the other is conjugated to a plus strand PLA probe. Nuclei were stained with DNA marker DAPI (Sigma). Stained slides were mounted using Fluoromount Plus (Diagnostic Biosystems) and fluorescent images were acquired by confocal microscopy (FV10i, Olympus) and Photoshop software (Adobe). The number of fluorescent foci per single cell was quantified using Duolink®Image Tool software (Olink Bioscience).

[2] = system: Raptor-Ser863; experiment: Duolink in situ PLA, Raptor-Ser863 phosphorylation in LT-CML cancer stem cells; format: cell-based, mouse; conditions: 30 min; GlySar or cefadroxil 5 μM; rapamycin 100 nM
Procedure: as §1
as §2, with “Treated cells were fixed with 4% paraformaldehyde for 30 min, and treated with 0.25% Triton X-100 for 15 min, washed and blocked by incubation in 5% FBS in TBS for 1 hr.” left out
(§4) The proximate binding of these antibodies was then detected using Duolink® in situ PLA system which employs a set of two secondary antibodies in which one is conjugated to a minus strand PLA probe and the other is conjugated to a plus strand PLA probe. […] The number of fluorescent foci per single cell was quantified using Duolink®Image Tool software (Olink Bioscience).

[3] = system: S6 ribosomal protein; experiment: Duolink in situ PLA, S6 ribosomal protein phosphorylation in LT-CML cancer stem cells; format: cell-based, mouse; conditions: 30 min; GlySar or cefadroxil 5 μM; rapamycin 100 nM
Procedure: as §1
as §2, with “Treated cells were fixed with 4% paraformaldehyde for 30 min, and treated with 0.25% Triton X-100 for 15 min, washed and blocked by incubation in 5% FBS in TBS for 1 hr.” left out
as §4

[4] = system: Raptor-Ser792; experiment: Raptor-Ser792 phosphorylation in LT-CML cancer stem cells; format: cell-based, mouse; conditions: LT-CML cancer stem cells in vitro
[5] = system: Smad3 Ser208; experiment: Duolink in situ PLA, Smad3 Ser208 phosphorylation in LT-CML cancer stem cells; format: cell-based, mouse
Procedure: as §1, §2, §3

[6] = system: CML-KLS+ cells; experiment: Metabolomic analysis of CML-KLS+ cells treated in vitro with protein degradation inhibitors; format: cell-based, mouse; conditions: 100 nM, 2 hrs in vitro, hypoxic (3% O2)
Procedure: (§5) To detect inhibition of dipeptide uptake in vivo, immature KLS^+ cells were isolated from tet-inducible CML-affected (Tal1-tTA^+TRE-BCR-ABL1^+) mice (n=4 mice in each of the three independent experiments), and normal healthy littermate (Tal1-tTA^+) mice (n=6 mice in each of the two independent experiments) that had received vehicle or cefadroxil (36 mgKg^−1day^−1) by oral gavage for 30 days. […] In all cases, isolated cell pellets were frozen at −80° C. immediately after obtaining. Metabolomic profiling was performed by Metabolon Inc. (Durham, N.C.) using ultrahigh-performance liquid chromatography/mass spectroscopy (UPLC/MS/MS) and gas chromatography/MS (GC/MS). Data were compiled using the Metabolon LIMS (Laboratory Information Management System). The UPLC/MS/MS portion of the platform was based on a Waters Acquity UPLC (Waters) and a Q-Exactive high-resolution/accurate mass spectrometer (Thermo Scientific) interfaced with a heated electrospray ionization (HESI-II) source and Orbitrap mass analyzer. GC/MS was performed by a Trace DSQ fast-scanning single-quadrupole mass spectrometer using electron impact ionization (Thermo-Finnigan).

[7] = system: CML-KLS+ cells; experiment: Metabolomic analysis of dipeptides in KLS+ cells from treated CML-affected mice; format: in vivo, mouse; conditions: IM 100 mg/kg/day for 30 days (1 month)
Procedure: as §5

[8] = system: SLC15A2 mRNA; conditions: nine CML patients, 1 month after IM therapy; public database; cited from earlier work

SMILES | phosphorylation of AMPK [1] | Raptor-Ser792 phosphorylation [4] | dipeptide accumulation [6] | individual amino-acid levels [6] | also measured
CN(CC(=O)O)C(=O)CN [GlySar, glycylsarcosine] (H-Gly-[Sar]-OH) | increased | did not promote | – | – | phosphorylation of Raptor-Ser863 [2]: decreased phosphorylation; phosphorylation of S6 [3]: decreased phosphorylation; Smad3 Ser208 phosphorylation ([5]; 30 min, GlySar or cefadroxil 5 μM, rapamycin 100 nM): blocked
CN(C)C(=N)N=C(N)N [Metformin] | increases | increases | – | – | –
CO/C1=C\C(C)=C\[C@@H](C)[C@@H](O)[C@@H](C)C/C(C)=C/C=C/[C@H](OC)[C@@H]([C@@H](C)[C@@H](O)[C@H](C)[C@@]2(O)C[C@@H](O)[C@H](C)[C@@H](C(C)C)O2)OC1=O [Bafilomycin A1] | – | – | increased significantly | decreased | –
CC(C)C[C@H](NC(=O)[C@H](Cc1ccccc1)NC(=O)c1cnccn1)B(O)O [Bortezomib] | – | – | increased significantly | decreased | –
Cc1ccc(NC(=O)c2ccc(CN3CCN(C)CC3)cc2)cc1Nc1nccc(-c2cccnc2)n1 [IM, imatinib mesylate] | – | – | – | – | dipeptide levels in CML-KLS+ cells [7]: tended to decrease; SLC15A2 mRNA levels in CML patients [8]: decreased to a level comparable to that in healthy individuals; levels of phospho-Smad3-Ser208 ([5]; IM treatment of murine LT-CML stem cells in vitro): reduced
